Laboratory results as given in patent US9107410B2, “Pesticidal compositions and processes related thereto” (Dow AgroSciences LLC, priority 2011, dated 2015).
Like-named read-outs stand apart in the source and are kept apart here.

Experiments:
Assay type in all cases: in vivo
[1] = test system: Beet Armyworm (BAW) (Spodoptera exigua); experiment: Bioassay on beet armyworm (BAW), 128-well diet tray assay; conditions: 168 h, read-out: % Mortality BAW 50 μg/cm^2
Description: (§1) Certain molecules disclosed in this document were tested against BAW and CEW using procedures described in the following examples. In the reporting of the results, the “BAW & CEW Rating Table” was used (See Table Section).
Bioassays on BAW (Spodoptera exigua)
Bioassays on BAW were conducted using a 128-well diet tray assay. One to five second instar BAW larvae were placed in each well (3 mL) of the diet tray that had been previously filled with 1 mL of artificial diet to which 50 μg/cm^2 of the test compound (dissolved in 50 μL of 90:10 acetone-water mixture) had been applied (to each of eight wells) and then allowed to dry. Trays were covered with a clear self-adhesive cover, and held at 25° C., 14:10 light-dark for five to seven days. Percent mortality was recorded for the larvae in each well; activity in the eight wells was then averaged. The results are indicated in the table entitled “Table: Bio Results” (See Table Section).

[2] = test system: Corn Earworm (CEW) (Helicoverpa zea); experiment: Bioassay on corn earworm (CEW), 128-well diet tray assay; conditions: 168 h, read-out: % Mortality CEW 50 μg/cm^2
Description: as §1
Bioassays on CEW (Helicoverpa zea)
Bioassays on CEW were conducted using a 128-well diet tray assay. One to five second instar CEW larvae were placed in each well (3 mL) of the diet tray that had been previously filled with 1 mL of artificial diet to which 50 μg/cm^2 of the test compound (dissolved in 50 μL of 90:10 acetone-water mixture) had been applied (to each of eight wells) and then allowed to dry. Trays were covered with a clear self-adhesive cover, and held at 25° C., 14:10 light-dark for five to seven days. Percent mortality was recorded for the larvae in each well; activity in the eight wells was then averaged. The results are indicated in the table entitled “Table: Bio Results” (See Table Section).

[3] = test system: Green Peach Aphid (GPA) (Myzus persicae); experiment: Bioassay on green peach aphid (GPA), foliar spray on cabbage seedlings; conditions: 72 h, read-out: % Mortality GPA 200 ppm
Description: Certain molecules disclosed in this document were tested against GPA using procedures described in the following example. In the reporting of the results, the “GPA Rating Table” was used (See Table Section).
Cabbage seedlings grown in 3-inch pots, with 2-3 small (3-5 cm) true leaves, were used as test substrate. The seedlings were infested with 20-50 GPA (wingless adult and nymph stages) one day prior to chemical application. Four pots with individual seedlings were used for each treatment. Test compounds (2 mg) were dissolved in 2 mL of acetone/methanol (1:1) solvent, forming stock solutions of 1000 ppm test compound. The stock solutions were diluted 5× with 0.025% Tween 20 in H2O to obtain the solution at 200 ppm test compound. A hand-held aspirator-type sprayer was used for spraying a solution to both sides of […] leaves until runoff. Reference plants (solvent check) were sprayed with the diluent only containing 20% by volume of acetone/methanol (1:1) solvent. Treated plants were held in a holding room for three days at approximately 25° C. and ambient relative humidity (RH) prior to grading. Evaluation was conducted by counting the number of live aphids per plant under a microscope. Percent Control was measured by using Abbott's correction formula (W. S. Abbott, “A Method of Computing the Effectiveness of an Insecticide” J. Econ. Entomol. 18 (1925), pp. 265-267) as follows. Corrected % Control=100*(X−Y)/X • where • X=No. of live aphids on solvent check plants and • Y=No. of live aphids on treated plants

[4] = 50 μg/cm^2 on artificial diet, second instar larvae, 25° C., five to seven days, average of eight wells
[5] = 200 ppm foliar spray on cabbage seedlings, graded after three days, Abbott corrected % control

## O=C(NC1CC1c1ccc(-c2ncn(-c3ccc(OC(F)(F)F)cc3)n2)cc1)Oc1ccccc1 (stereo not drawn) [Compound 21, Phenyl 2-(4-(1-(4-(trifluoromethoxy)phenyl)-1H-1,2,4-triazol-3-yl)phenyl)cyclopropyl-carbamate]
[1]
  mortality at 50 µg/cm2: 50 to 100%
[2]
  mortality at 50 µg/cm2: 50 to 100%
[3]; foliar
  mortality at 200 ppm: 0%

## Cc1cc(F)ccc1OC(=O)NC1CC1c1ccc(-c2ncn(-c3ccc(OC(F)(F)F)cc3)n2)cc1 (stereo not drawn) [Compound 22, 4-Fluoro-2-methylphenyl 2-(4-(1-(4-(trifluoromethoxy)phenyl)-1H-1,2,4-triazol-3-yl)-phenyl)cyclopropylcarbamate]
[1]
  mortality at 50 µg/cm2: 50 to 100%
[2]
  mortality at 50 µg/cm2: 50 to 100%
[3]; foliar
  mortality at 200 ppm: 0%

## O=C(NC1CC1c1ccc(-c2ncn(-c3ccc(OC(F)(F)F)cc3)n2)cc1)Oc1ccccc1C1CCCC1 (stereo not drawn) [Compound 23, 2-Cyclopentylphenyl 2-(4-(1-(4-(trifluoromethoxy)phenyl)-1H-1,2,4-triazol-3-yl)phenyl)-cyclopropylcarbamate]
[1]
  mortality at 50 µg/cm2: 0%
[2]
  mortality at 50 µg/cm2: 50 to 100%
[3]; foliar
  mortality at 200 ppm: 0 to 80%

## CC(C)(C)c1ccccc1OC(=O)NC1CC1c1ccc(-c2ncn(-c3ccc(OC(F)(F)F)cc3)n2)cc1 (stereo not drawn) [Compound 24, 2-tert-Butylphenyl 2-(4-(1-(4-(trifluoromethoxy)phenyl)-1H-1,2,4-triazol-3-yl)phenyl)-cyclopropylcarbamate]
[1]
  mortality at 50 µg/cm2: 50 to 100%
[2]
  mortality at 50 µg/cm2: 0%
[3]; foliar
  mortality at 200 ppm: 0 to 80%

## O=C(NC1CC1c1ccc(-c2ncn(-c3ccc(OC(F)(F)F)cc3)n2)cc1)Oc1ccccc1C(F)(F)F (stereo not drawn) [Compound 25, 2-(Trifluoromethyl)phenyl 2-(4-(1-(4-(trifluoromethoxy)phenyl)-1H-1,2,4-triazol-3-yl)-phenyl)cyclopropylcarbamate]
[1]
  mortality at 50 µg/cm2: 0%
[2]
  mortality at 50 µg/cm2: 0%
[3]; foliar
  mortality at 200 ppm: 0 to 80%

## Cc1cc(C)c(OC(=O)NC2CC2c2ccc(-c3ncn(-c4ccc(OC(F)(F)F)cc4)n3)cc2)c(C)c1 (stereo not drawn) [Compound 26, Mesityl 2-(4-(1-(4-(trifluoromethoxy)phenyl)-1H-1,2,4-triazol-3-yl)phenyl)cyclopropyl-carbamate]
[1]
  mortality at 50 µg/cm2: 50 to 100%
[2]
  mortality at 50 µg/cm2: 0 to 50%
[3]; foliar
  mortality at 200 ppm: 0%

## COc1ccc(OC(=O)NC2CC2c2ccc(-c3ncn(-c4ccc(OC(F)(F)F)cc4)n3)cc2)cc1 (stereo not drawn) [Compound 27, 4-Methoxyphenyl 2-(4-(1-(4-(trifluoromethoxy)phenyl)-1H-1,2,4-triazol-3-yl)phenyl)-cyclopropylcarbamate]
[1]
  mortality at 50 µg/cm2: 0 to 50%
[2]
  mortality at 50 µg/cm2: 50 to 100%
[3]; foliar
  mortality at 200 ppm: 0%

## O=C(NC1CC1c1ccc(-c2ncn(-c3ccc(OC(F)(F)F)cc3)n2)cc1)Oc1c(Cl)cccc1Cl (stereo not drawn) [Compound 28, 2,6-Dichlorophenyl 2-(4-(1-(4-(trifluoromethoxy)phenyl)-1H-1,2,4-triazol-3-yl)phenyl)-cyclopropylcarbamate]
[1]
  mortality at 50 µg/cm2: 0%
[2]
  mortality at 50 µg/cm2: 0%
[3]; foliar
  mortality at 200 ppm: 0 to 80%

## CC(C)c1ccccc1OC(=O)NC1CC1c1ccc(-c2ncn(-c3ccc(OC(F)(F)F)cc3)n2)cc1 (stereo not drawn) [Compound 29, 2-Isopropylphenyl 2-(4-(1-(4-(trifluoromethoxy)phenyl)-1H-1,2,4-triazol-3-yl)phenyl)-cyclopropylcarbamate]
[1]
  mortality at 50 µg/cm2: 50 to 100%
[2]
  mortality at 50 µg/cm2: 50 to 100%
[3]; foliar
  mortality at 200 ppm: 0%

## Cc1cc(C)c(NC(=O)NC2CC2c2ccc(-c3ncn(-c4ccc(OC(F)(F)F)cc4)n3)cc2)c(C)c1 (stereo not drawn) [Compound 30, 1-Mesityl-3-(2-(4-(1-(4-(trifluoromethoxy)phenyl)-1H-1,2,4-triazol-3-yl)phenyl)-cyclopropyl)urea]
[1]; [4]
  mortality at 50 µg/cm2: 0%
[2]; [4]
  mortality at 50 µg/cm2: 0%
[3]; [5]
  mortality at 200 ppm: 0 to 80%

## O=C(Nc1c(Cl)cccc1Cl)NC1CC1c1ccc(-c2ncn(-c3ccc(OC(F)(F)F)cc3)n2)cc1 (stereo not drawn) [Compound 31, 1-(2,6-Dichlorophenyl)-3-(2-(4-(1-(4-(trifluoromethoxy)phenyl)-1H-1,2,4-triazol-3-yl)phenyl)cyclopropyl)urea]
[1]; [4]
  mortality at 50 µg/cm2: 0%
[2]; [4]
  mortality at 50 µg/cm2: 0%
[3]; [5]
  mortality at 200 ppm: 0%

## O=C(NC1CC1c1ccc(-c2ncn(-c3ccc(OC(F)(F)F)cc3)n2)cc1)NC1CC1c1ccc(-c2ncn(-c3ccc(OC(F)(F)F)cc3)n2)cc1 (stereo not drawn) [Compound 32, 1,3-bis(2-(4-(1-(4-(trifluoromethoxy)phenyl)-1H-1,2,4-triazol-3-yl)phenyl)cyclopropyl)urea]
[1]; [4]
  mortality at 50 µg/cm2: 0%
[2]; [4]
  mortality at 50 µg/cm2: 50 to 100%
[3]; [5]
  mortality at 200 ppm: 0 to 80%
